This is an account of results in patent US4171312A, “Alkyl 7-[tetrahydro-4-(3-hydroxy-1-octenyl)-2,6-dioxo-4H-cyclopenta-1,3-dioxol -5-yl]-5-heptenoates” (G. D. Searle & Co., priority 1978, dated 1979).

This test relates to fecundity of hamsters. The test can be described thus: standardized test for capacity to inhibit the fecundity of hamsters (implantation rate). In kind it is in vivo, Syrian golden hamsters. As for the experimental part: The contraceptive utility of the instant compounds is evident from the results of a standardized test for their capacity to inhibit the fecundity of hamsters. In this test, sexually-mature female Syrian golden hamsters weighing at least 105 g are mated; and to each of a group of 5 is administered, daily for 5 days beginning on the first day sperm appears in the vagina between 8:15 and 10:00 a.m., test compound dissolved or suspended in an inert vehicle. The initial daily dose is ordinarily 50 mg/kg in 0.2 ml of corn oil, subcutaneously or intragastrically. A group of such animals to which is likewise administered vehicle alone serves as controls. Approximately 48 hr. after the 5th dose, the animals are sacrificed and their uteri and ovaries inspected for implantation sites and corpora lutea. If the total number of the former divided by the total number of the later (i.e., the implantation rate) affords a value amounting to 0.5 or less, the compound is considered to inhibit fecundity in the foregoing test. The ED50 of such a compound is determined by repeating the test at appropriate doosage(s). Potency is expressed as the ratio of the ED50 of estrone to that of compound.

Setting [1] is: mated female Syrian golden hamsters, 10 mg/kg subcutaneously in corn oil, daily for 5 days.

In general, ED50 refers to the dose at which the effect has come halfway, by size or by number of responders. In the case of `CCCCC[C@H](O)/C=C/C1C(C/C=C\CCCC(=O)OC)C(=O)C2OC(=O)OC21` (stereo partly drawn) [Example 1, methyl 7-[tetrahydro-4-(3S-hydroxy-1E-octenyl)-2,6-dioxo-4H-cyclopenta-1,3-dioxol-5-yl]-5Z-heptenoate], under “Mesocricetus auratus, 120 h, mated female Syrian golden hamsters, daily for 5 days, read-out: ED50 (inhibition of fecundity)”, the ED50 came out at 5.6 mg/kg. Under setting [1], the “implantation rate (total implantation sites divided by total corpora lutea)” value was 0.16 and the “inhibition of fecundity (implantation rate 0.5 or less)” value is “inhibited fecundity”. Also, the “potency (ratio of the ED50 of estrone to that of compound)” value (relative to estrone, hamster fecundity test) is “approximately 1%”.
